Assays:
[1] = molecular target: T1, Thymidine kinase, cytosolic (Homo sapiens) (UniProt P04183); assay: Inhibition of human recombinant TK1 phosphorylation after 15 mins by pyruvate kinase/lactate dehydrogenase coupled assay relative to thymidine
T1 sequence (whole entry): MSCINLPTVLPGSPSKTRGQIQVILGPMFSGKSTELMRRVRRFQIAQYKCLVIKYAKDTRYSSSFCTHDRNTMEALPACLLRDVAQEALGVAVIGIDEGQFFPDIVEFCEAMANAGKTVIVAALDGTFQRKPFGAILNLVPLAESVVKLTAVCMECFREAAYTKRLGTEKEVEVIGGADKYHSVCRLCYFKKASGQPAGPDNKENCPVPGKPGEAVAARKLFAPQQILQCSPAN

SK-N-MC = assay: Drug uptake in human SK-N-MC cells at 111 kBq after 2 hrs by […]; type: ADME, cell-based

inhibition [1] [%] | Compound | Drug uptake (SK-N-MC) [%ID/mg/ml]
86.7 | C#CCn1c(=O)c(C)cn([C@H]2C[C@H](O)[C@@H](CO)O2)c1=O | –
– | [3H]C([3H])([3H])c1cn([C@H]2C[C@H](O)[C@@H](CO)O2)c(=O)[nH]c1=O | 29
